Here are results for 1 compound from publication PMC5994430, “Mitochondrial Delivery of Phenol Substructure Triggers Mitochondrial Depolarization and Apoptosis of Cancer Cells” (Frontiers in Pharmacology, 2018).

In assay [1] the test system is A549 cells. Put plainly: Cell viability (neutral red). In kind it is cell-based, Human. The settings on record: A549; 0.1 μM, 72 h. The text has this:
(§1) Human colon cancer HT29 cells, colon-derived normal fibroblast CCD-18Co cells, lung cancer A549 cells, normal human bronchial epithelial (immortalized with adenovirus 12-SV40 virus hybrid Ad12SV40) BEAS-2B cells, breast cancer MDA-MB-231 cells, normal breast epithelial MCF10A cells, human osteosarcoma U-2OS cells were purchased from ATCC (Manassas, VA, United States). […] All subjects gave written informed consent in accordance with the Declaration of Helsinki. Cells were maintained in medium supplemented with 10% v/v fetal bovine serum, 1% v/v penicillin-streptomycin, 1% v/v L-glutamine. Morphological analysis was performed with a bright field microscope (Leica Microsystems, Wetzlar, Germany). At least 5 fields/experimental condition were examined.
(§2) LDH activity was measured in the extracellular medium and in the cell lysate: 50 μl of extracellular medium or 5 μl of cell lysate were incubated at 37°C with 5 mM NADH. The reaction was started by adding 20 mM pyruvic acid and was monitored for 6 min, measuring absorbance at 340 nm using a Synergy HT Multi-Detection Microplate Reader (Bio-Tek Instruments, Winoosky, MT, United States). […] Both intracellular and extracellular enzyme activities were expressed as μmol NADH oxidized/min/dish. The results were expressed as percentage of extracellular LDH versus total (intracellular plus extracellular) LDH. […] The absorbance of untreated cells was considered as 100% viability; the results were expressed as percentage of viable cells versus untreated cells. IC50 was calculated with the CompuSyn software^1.

The subject of assay [2] is BEAS-2B cells. The experiment in a line: Cell viability (neutral red). The settings on record: BEAS-2B; 0.1 μM, 72 h. In kind it is cell-based, Human.
Excerpt: as §1, §2

As for `C[P+](c1ccccc1)(c1ccccc1)c1ccccc1.[Cl-]` [TPMP, methyltriphenylphosphonium chloride, reference compound], the cell viability entry in assay [1] and in assay [2] was “did not reduce viability” in each case.
